# Laboratory results taken from ChEMBL document CHEMBL1759972, “Phenoxyacetic acids as PPARδ partial agonists: synthesis, optimization, and in vivo efficacy” (Bioorg Med Chem Lett, 2011).
# Calls of active or inactive are those of the source. No cut-off for these calls is given here.
# Experiments:
# [1] = molecular target: T1, Peroxisome proliferator-activated receptor alpha (Homo sapiens, UniProt Q07869); assay: Displacement of [3H]GW 2433 from human PPARalpha by scintillation proximity assay
# T1 sequence (Q07869 whole entry): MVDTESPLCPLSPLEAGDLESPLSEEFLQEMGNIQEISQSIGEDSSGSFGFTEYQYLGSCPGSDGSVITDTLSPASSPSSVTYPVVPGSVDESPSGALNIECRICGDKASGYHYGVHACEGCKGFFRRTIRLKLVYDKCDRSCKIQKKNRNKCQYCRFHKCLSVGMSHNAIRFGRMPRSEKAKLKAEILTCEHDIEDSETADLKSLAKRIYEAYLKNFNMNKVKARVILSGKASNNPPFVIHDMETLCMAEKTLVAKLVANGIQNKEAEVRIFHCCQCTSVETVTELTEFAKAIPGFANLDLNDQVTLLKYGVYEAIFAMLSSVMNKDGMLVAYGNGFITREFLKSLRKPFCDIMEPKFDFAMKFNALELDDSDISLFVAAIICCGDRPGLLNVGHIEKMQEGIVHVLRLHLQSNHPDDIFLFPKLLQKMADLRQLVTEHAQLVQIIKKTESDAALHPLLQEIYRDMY
# Mus musculus [2] = assay: Dose normalized AUC (0 to 24 hrs) in CD mouse at 10 mg/kg, po; format: ADME, organism-based; parameters: time < 24 hr, dose 10 mg/kg, route oral; details: in vivo
# [3] = molecular target: T2, Peroxisome proliferator-activated receptor delta (Homo sapiens, UniProt Q03181)
# T2 sequence (Q03181 whole entry): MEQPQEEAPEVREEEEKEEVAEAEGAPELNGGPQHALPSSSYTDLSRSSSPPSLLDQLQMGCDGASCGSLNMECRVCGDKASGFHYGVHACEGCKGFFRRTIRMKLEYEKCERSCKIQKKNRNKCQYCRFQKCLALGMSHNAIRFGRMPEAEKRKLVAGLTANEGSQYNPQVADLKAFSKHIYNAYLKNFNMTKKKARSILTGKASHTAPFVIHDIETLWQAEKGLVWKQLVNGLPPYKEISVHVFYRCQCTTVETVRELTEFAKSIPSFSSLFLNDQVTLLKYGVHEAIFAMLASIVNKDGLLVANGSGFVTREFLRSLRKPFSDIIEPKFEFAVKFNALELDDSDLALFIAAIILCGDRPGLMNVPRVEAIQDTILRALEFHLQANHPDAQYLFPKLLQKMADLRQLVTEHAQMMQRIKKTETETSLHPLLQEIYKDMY
# Description: Displacement of [3H]GW 2433 from human PPARdelta by scintillation proximity assay
# [4] = molecular target: T2, Peroxisome proliferator-activated receptor delta; remark: listed apart in the source
# Description: Partial agonist activity at human PPARdelta expressed in african green monkey CV1 cells transfected with Gal4 assessed as beta-galactosidase activity by transactivation assay
# [5] = molecular target: T3, Peroxisome proliferator-activated receptor gamma (Homo sapiens, UniProt P37231)
# T3 sequence (P37231 whole entry): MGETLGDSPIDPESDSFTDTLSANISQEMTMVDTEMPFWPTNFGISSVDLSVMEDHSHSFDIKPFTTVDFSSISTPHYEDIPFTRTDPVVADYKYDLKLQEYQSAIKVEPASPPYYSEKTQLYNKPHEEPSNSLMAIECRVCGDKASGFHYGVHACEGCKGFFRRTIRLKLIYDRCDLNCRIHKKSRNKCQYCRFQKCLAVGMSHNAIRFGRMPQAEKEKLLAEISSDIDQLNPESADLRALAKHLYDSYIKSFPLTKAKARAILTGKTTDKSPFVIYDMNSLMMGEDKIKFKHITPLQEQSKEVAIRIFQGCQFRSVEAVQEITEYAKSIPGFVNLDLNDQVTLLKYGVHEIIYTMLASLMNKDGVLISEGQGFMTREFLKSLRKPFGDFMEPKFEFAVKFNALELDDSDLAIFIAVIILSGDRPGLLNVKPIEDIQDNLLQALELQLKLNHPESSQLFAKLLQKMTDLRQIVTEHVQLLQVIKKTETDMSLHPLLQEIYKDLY
# Description: Displacement of [3H]GW 2433 from human PPARgamma by scintillation proximity assay
# [6] = molecular target: T2, Peroxisome proliferator-activated receptor delta; assay: Induction of human PPARdelta-mediated CPT1a gene expression in human skeletal muscle; format: tissue-based, Muscle tissue
# [7] = molecular target: T2, Peroxisome proliferator-activated receptor delta; assay: Induction of human PPARdelta-mediated PDK4 gene expression in human skeletal muscle; format: tissue-based, Muscle tissue
# [8] = Aqueous solubility of the compound; format: physicochemical
# [9] = Permeability across artificial membrane; format: ADME; details: PAMPA; read-out: permeability
# Cytochrome P450 1A2 = molecular target: T4, Cytochrome P450 1A2 (Homo sapiens, UniProt P05177); assay: Inhibition of CYP1A2; format: ADME
# T4 sequence (P05177 whole entry): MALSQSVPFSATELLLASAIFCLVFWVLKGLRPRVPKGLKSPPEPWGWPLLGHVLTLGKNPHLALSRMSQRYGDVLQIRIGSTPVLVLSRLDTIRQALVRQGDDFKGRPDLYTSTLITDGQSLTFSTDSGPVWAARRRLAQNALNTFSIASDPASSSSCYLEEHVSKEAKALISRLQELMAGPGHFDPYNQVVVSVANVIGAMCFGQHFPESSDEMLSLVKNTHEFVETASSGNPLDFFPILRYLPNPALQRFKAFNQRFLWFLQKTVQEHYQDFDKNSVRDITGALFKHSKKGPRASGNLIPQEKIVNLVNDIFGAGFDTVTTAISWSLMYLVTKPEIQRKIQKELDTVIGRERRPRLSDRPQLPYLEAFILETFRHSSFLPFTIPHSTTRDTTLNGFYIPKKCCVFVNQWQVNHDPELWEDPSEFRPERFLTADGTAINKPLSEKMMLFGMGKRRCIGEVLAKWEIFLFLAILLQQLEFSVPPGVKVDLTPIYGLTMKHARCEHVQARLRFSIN
# Cytochrome P450 2C19 = Cytochrome P450 2C19 (Homo sapiens, UniProt P33261); assay: Inhibition of CYP2C19; format: ADME
# Cytochrome P450 2D6 = Cytochrome P450 2D6 (Homo sapiens, UniProt P10635); assay: Inhibition of CYP2D6; format: ADME
# Cytochrome P450 3A4 = Cytochrome P450 3A4 (Homo sapiens, UniProt P08684); assay: Inhibition of CYP3A4; format: ADME
# Cytochrome P450 2C9 = Cytochrome P450 2C9 (Homo sapiens, UniProt P11712); assay: Inhibition of CYP2C9; format: ADME
# Liver microsomes = assay: Intrinsic clearance in human liver microsomes; format: ADME, Microsome
# [10] = AUC (0 to infinity) in CD mouse at 10 mg/kg, po; format: ADME, organism-based; parameters: time infinity, dose 10 mg/kg, route oral; details: plasma
# [11] = Half life in CD mouse at 10 mg/kg, po; format: ADME, organism-based; parameters: dose 10 mg/kg, route oral; details: in vivo
# Mus musculus [12] = assay: Antidiabetic activity in fasting insulin-resistant ob/ob mouse assessed as decrease in body weight gain at 100 mg/kg, po administered once daily for 15 days; format: functional, organism-based; parameters: dose 100 mg/kg
# Mus musculus [13] = assay: Antidiabetic activity in po dosed fasting insulin-resistant ob/ob mouse assessed as improvement in glucose sensitivity administered once daily for 15 days measured on day 12 of dosing by OGTT method; format: functional, organism-based
# Mus musculus [14] = assay: Antidiabetic activity in fasting insulin-resistant ob/ob mouse assessed as improvement in glucose sensitivity at 30 mg/kg, po administered once daily for 15 days measured on day 12 of dosing by OGTT method; format: functional, organism-based; parameters: dose 30 mg/kg
# Sequence of Cytochrome P450 2D6 (P10635 whole entry): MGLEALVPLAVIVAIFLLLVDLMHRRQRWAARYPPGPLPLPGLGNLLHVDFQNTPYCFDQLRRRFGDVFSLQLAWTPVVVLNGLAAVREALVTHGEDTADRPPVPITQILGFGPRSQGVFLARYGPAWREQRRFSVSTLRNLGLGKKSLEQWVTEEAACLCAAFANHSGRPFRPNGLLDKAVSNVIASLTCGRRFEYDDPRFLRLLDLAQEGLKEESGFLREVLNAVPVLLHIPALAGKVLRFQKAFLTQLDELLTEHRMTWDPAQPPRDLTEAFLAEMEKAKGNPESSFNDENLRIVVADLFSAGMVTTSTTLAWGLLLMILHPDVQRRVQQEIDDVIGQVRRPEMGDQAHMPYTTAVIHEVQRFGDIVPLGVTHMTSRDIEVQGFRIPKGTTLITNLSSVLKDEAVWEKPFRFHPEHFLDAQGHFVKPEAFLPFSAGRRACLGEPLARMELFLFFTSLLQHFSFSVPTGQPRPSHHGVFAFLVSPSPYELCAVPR
# Sequence of Cytochrome P450 2C9 (P11712 whole entry): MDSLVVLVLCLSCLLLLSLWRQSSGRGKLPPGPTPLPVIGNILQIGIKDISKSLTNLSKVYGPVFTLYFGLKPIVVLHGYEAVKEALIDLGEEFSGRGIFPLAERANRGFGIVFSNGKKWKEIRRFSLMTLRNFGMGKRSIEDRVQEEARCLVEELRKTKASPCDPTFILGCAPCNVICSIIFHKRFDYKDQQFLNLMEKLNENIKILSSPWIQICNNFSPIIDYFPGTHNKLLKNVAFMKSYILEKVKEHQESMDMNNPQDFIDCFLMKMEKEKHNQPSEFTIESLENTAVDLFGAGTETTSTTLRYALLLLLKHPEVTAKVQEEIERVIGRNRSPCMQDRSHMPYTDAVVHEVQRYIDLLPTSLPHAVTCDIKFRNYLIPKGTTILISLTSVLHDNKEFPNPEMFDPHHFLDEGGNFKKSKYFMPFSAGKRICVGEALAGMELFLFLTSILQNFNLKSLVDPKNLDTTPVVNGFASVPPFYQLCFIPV
# Sequence of Cytochrome P450 2C19 (P33261 whole entry): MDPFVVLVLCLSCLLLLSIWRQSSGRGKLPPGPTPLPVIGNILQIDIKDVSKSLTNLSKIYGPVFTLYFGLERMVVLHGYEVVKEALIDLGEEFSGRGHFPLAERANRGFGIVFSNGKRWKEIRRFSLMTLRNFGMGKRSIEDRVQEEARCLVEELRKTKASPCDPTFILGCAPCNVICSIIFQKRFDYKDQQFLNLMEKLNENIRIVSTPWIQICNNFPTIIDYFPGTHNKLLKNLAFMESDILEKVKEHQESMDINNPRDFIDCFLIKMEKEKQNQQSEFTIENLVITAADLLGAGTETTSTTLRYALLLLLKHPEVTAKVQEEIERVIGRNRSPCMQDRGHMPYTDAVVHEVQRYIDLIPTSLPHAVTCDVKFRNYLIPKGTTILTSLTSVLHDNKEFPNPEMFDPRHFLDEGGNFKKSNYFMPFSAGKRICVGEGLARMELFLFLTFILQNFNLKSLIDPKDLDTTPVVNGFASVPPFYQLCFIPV
# Sequence of Cytochrome P450 3A4 (P08684 whole entry): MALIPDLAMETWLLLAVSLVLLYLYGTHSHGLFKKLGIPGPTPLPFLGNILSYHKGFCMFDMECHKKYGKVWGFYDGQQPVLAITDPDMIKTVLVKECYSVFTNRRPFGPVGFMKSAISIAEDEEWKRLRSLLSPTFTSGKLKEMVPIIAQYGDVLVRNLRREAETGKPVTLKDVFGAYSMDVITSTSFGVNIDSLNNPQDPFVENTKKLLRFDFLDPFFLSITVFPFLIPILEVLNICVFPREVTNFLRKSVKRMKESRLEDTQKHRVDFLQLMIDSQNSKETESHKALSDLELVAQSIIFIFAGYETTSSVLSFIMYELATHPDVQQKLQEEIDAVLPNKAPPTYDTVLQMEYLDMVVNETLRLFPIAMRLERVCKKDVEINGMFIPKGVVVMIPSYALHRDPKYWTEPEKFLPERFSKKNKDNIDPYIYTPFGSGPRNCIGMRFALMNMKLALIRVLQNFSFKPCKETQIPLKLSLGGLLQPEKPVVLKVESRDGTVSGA
IC50 [1],AUC (Mus musculus [2]),IC50 [3],EC50 [4],IC50 [5],EC50 [6],EC50 [7],solubility [8],Papp [9],IC50 (Cytochrome P450 1A2),IC50 (Cytochrome P450 2C19),IC50 (Cytochrome P450 2D6),IC50 (Cytochrome P450 3A4),IC50 (Cytochrome P450 2C9),CL (Liver microsomes),AUC(0-inf) [10],half-life [11],SMILES,Activity (Mus musculus [12]),Activity (Mus musculus [13]),Activity (Mus musculus [14])
20000 nM,575 ng·h/mL/mg/kg,50.1 nM,25.1 nM,–,–,–,–,–,–,–,–,–,–,–,–,–,CCCCN(c1cccc(-c2ccc(Cl)cc2)c1C)S(=O)(=O)c1ccc(OC(C)C(=O)O)c(C)c1C (configuration not stated),–,–,–
7940 nM,–,6.31 nM,2.51 nM,6310 nM,3.98 nM,10 nM,140 µM,25 ×10⁻⁶ cm/s,> 3160 nM,> 3160 nM,> 3160 nM,> 3160 nM,794 nM,18 µL/min/mg,2480 ng·h/mL,4.3 h,CCCCN(c1cccc(-c2ccc(C(F)(F)F)cc2)c1Cl)S(=O)(=O)c1ccc(OC(C)C(=O)O)c(C)c1C (configuration not stated),Active,Dose-dependent effect,Active
10000 nM,–,15.8 nM,2.51 nM,6310 nM,10 nM,25.1 nM,140 µM,25 ×10⁻⁶ cm/s,> 3160 nM,> 3160 nM,> 3160 nM,> 3160 nM,794 nM,28 µL/min/mg,5870 ng·h/mL,5.4 h,CCCCN(c1cccc(-c2ccc(OC(F)(F)F)cc2)c1Cl)S(=O)(=O)c1ccc(OC(C)C(=O)O)c(C)c1C (configuration not stated),Active,Dose-dependent effect,Active
